Biological target: T1, purified human SIRT1 (Homo sapiens, UniProt Q96EB6)
T1 sequence (Q96EB6 1-747): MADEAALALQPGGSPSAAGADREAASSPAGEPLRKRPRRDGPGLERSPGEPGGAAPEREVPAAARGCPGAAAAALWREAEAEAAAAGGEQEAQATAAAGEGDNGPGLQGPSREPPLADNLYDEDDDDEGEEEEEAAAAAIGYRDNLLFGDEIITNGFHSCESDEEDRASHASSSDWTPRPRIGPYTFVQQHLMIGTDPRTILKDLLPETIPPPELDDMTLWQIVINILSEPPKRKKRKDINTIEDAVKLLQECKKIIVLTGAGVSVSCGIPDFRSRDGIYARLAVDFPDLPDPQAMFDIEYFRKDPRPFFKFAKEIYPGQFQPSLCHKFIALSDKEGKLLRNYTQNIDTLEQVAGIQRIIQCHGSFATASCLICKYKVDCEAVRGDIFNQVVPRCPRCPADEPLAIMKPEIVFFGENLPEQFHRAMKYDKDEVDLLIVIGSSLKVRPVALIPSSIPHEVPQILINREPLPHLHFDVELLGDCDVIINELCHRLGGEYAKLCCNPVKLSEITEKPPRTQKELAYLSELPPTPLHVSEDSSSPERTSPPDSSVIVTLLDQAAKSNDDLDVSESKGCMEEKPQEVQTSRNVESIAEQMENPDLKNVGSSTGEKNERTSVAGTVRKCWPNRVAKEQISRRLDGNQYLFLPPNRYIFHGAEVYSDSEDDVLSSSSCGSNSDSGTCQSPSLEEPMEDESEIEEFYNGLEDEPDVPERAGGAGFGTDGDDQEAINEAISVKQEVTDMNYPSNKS
Assay: SIRT1 inhibitor screen (mobility shift assay, p53 substrate)
Assay type: biochemical
Settings: 2 ng/μl SIRT1, 3 μM p53 substrate; for percent inhibition of SIRT1 at 5 μM / inhibition at 5 µM: 5 μM compound; for percent inhibition of SIRT1 at 50 μM / inhibition at 50 µM: 50 μM compound; for inhibition at 5 µM: read-out: percent inhibition of SIRT1 at 5 μM; for inhibition at 50 µM: read-out: percent inhibition of SIRT1 at 50 μM
Experimental: The NatProd Collection library (MicroSource Discovery Systems, Inc. Gaylordsville, Conn.) in ten source plates was screened at two doses (50 μM and 5 μM final in the reaction mixture, duplicate for each dose). The inhibitory activity of the compounds was assessed against 2 ng/μ1 purified human SIRT1 using 3 μM p53 as a substrate. The assay was a mobility shift assay based on charge differences before and after electrophoretic separation of product from fluorescently labeled substrate read using a Caliper EZ Reader (Perkin Elmer, Boston, Mass.). All reactions took place in the presence of excess nicotinamide adenine dinucleotide and the known SIRT1 inhibitor suramin was used as a control.

| SMILES | percent inhibition of SIRT1 at 5 μM | percent inhibition of SIRT1 at 50 μM | inhibition at 5 µM [%] | inhibition at 50 µM [%] |
| --- | --- | --- | --- | --- |
| O=C(O[C@@H]1Cc2c(O)cc(O)cc2O[C@@H]1c1cc(O)c(O)c(O)c1)c1cc(O)c(O)c(O)c1 [Epigallocatechin-3-monogallate] | 72 | 99 |  |  |
| O=C(O[C@@H]1Cc2c(O)cc(O)cc2O[C@@H]1c1ccc(O)c(O)c1)c1cc(O)c(O)c(O)c1 [Epicatechin monogallate] | 66 | 99 |  |  |
| Cc1c(O)c(O)cc2c1CC=C1[C@@]2(C)CC[C@@]2(C)[C@@H]3C[C@](C)(C(=O)O)CC[C@]3(C)CC[C@]12C [Dihydrocelastrol] |  |  | 84 | 99 |
| CC1=C(O)C(=O)C=C2C1=CC=C1[C@@]2(C)CC[C@@]2(C)[C@@H]3C[C@](C)(C(=O)O)CC[C@]3(C)CC[C@]12C [Celastrol] |  |  | 101 | 100 |

Reference: patent publication US11312695B2, “Nutrients to enhance load-induced muscle hypertrophy” (The Regents of the University of California, priority 2020, dated 2022)
